The values that follow come from publication PMC9866367 (Journal of medicinal chemistry, 2022).

Data set [1] is described as follows: In vivo pharmacokinetic analysis in mice. The arrangement: species or system male CD-1 mice.
The nature of the next data set: Cytotoxicity. In kind it is cell-based.
A further data set can be described thus: GSH. In kind it is in vitro ADME. The conditions noted are these: 5 μM compound, 5 mM GSH, up to 2 h.
A further data set deals with panel of 322 kinases. Put plainly: Kinase panel. In kind it is biochemical. The conditions noted are these: Table S2.
Data set [2] relates to 46 other relevant drug targets such as GPCRs, ion channels, and nuclear receptors. Put plainly: Eurofins safety panel. The conditions noted are these: Table S3.
For data set [3] the following is noted: 50 mg/kg IP, male mice, 1 h post-dosing; cited from earlier work.
For data set [4], the target named is T1, purified human sAC protein (Homo sapiens, UniProt Q96PN6).
T1 sequence (Q96PN6 1-469): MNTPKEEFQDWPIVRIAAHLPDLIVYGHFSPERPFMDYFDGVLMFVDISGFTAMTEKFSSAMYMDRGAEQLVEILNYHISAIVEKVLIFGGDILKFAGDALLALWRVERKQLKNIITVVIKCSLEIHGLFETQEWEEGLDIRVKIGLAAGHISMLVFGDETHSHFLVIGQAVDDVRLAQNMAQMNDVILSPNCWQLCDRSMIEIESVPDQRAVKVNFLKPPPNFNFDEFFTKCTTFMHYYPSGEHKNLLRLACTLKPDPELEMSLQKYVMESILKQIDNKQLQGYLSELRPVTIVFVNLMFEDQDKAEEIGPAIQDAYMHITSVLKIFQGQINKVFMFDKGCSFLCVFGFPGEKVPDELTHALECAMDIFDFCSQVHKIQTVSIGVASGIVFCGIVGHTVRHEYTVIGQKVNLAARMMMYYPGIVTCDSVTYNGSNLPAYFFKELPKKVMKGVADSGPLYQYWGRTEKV
The data set is described as follows: In vitro cyclase activity assay. The class given is biochemical.

Data set [5] has as its target T2, recombinant purified His-tagged sACt protein (Homo sapiens, UniProt Q96PN6).
T2 sequence (Q96PN6 1-469 limits assumed): T1 sequence (Q96PN6 1-469)
The data set is described as follows: Binding kinetics via surface plasmon resonance. The conditions noted are these: read-out: SPR Residence Time. Background: In SPR one partner is held on a chip, and binding of the other changes the refractive index at the surface.

Setting [6] is: male, CD-1, mouse, plasma, iv, 2 mg/kg.

By AUC(0-t) is commonly meant the area under the concentration-time curve up to a stated or last time point. Usually clearance stands for the volume of plasma or blood freed of the substance per unit of time. `Nc1nc(Cl)cc(-c2nn(C(F)F)cc2Cc2ccccc2OCCN2CCOC[C@H]2CO)n1` [Compound 33, [(3R)-4-[2-[2-[[3-(2-Amino-6-chloro-pyrimidin-4-yl)-1-(difluoromethyl)pyrazol-4-yl]methyl]phenoxy]ethyl]morpholin-3-yl]methanol]: in data set [1] (50 mg/kg PO, CD-1 mice, out to 4 h), the “unbound plasma exposure over cellular IC50 ([…])” value is on record as ~ 10 fold. Further, the AUC(0-t) is 780 ± 110 µM·h in data set [1] (setting [6]); 410 ± 57 µM·h in data set [1] (male, CD-1, mouse, plasma, po, 10 mg/kg); 5460 ± 1500 µM·h in data set [1] (male, CD-1, mouse, plasma, po, 50 mg/kg). Moreover, in data set [1] (setting [6]), the clearance came to 94 ± 12 mL/min/kg. In the data set “Cytotoxicity”, this compound gave a cytotoxicity of more than 20 µM. Further, in “Cytotoxicity” (at 20 μM), the cytotoxicity in words entry is given as “no cytotoxicity”. The glutathione reactivity entry in the data set “GSH” (listed as TDI-11861) was “no evidence of adduct formation”; in the data set “GSH” (listed as TDI-11861 (33)) it was “low propensity at 5 μM”. The “activity against a panel of 322 kinases” value in the data set on panel of 322 kinases is reported as “did not show appreciable activity”. In data set [2], the “activity against 46 other drug targets in Eurofins safety panel” value was “did not show appreciable activity”. For the same compound, the systemic level in data set [3] was 7.04 µM.

Regarding `CN(C)C(=O)c1ccccc1Cc1cn(C)nc1-c1cc(Cl)nc(N)n1` [Compound 14], the “biochemical activity in words” value in data set [4] was “almost inactive”.

For orientation: residence time means the mean lifetime of the complex, commonly the reciprocal of the off-rate. For the compound `Nc1nc(Cl)cc(-c2nn(C(F)F)cc2Cc2ccccc2OCC(=O)N2CCOCC2)n1` [Compound 24], the residence time in data set [5] is 8.07 min.
